According to patent publication US20110039721A1, “METHOD FOR PREDICTION ABOUT CARCINOGENICITY OF SUBSTANCE IN RODENT” (Chemicals Evaluation and Research Institute, priority 2007, published 2011):

System: mRNA expressed from the genes (A) to (D) in rat liver
Test: Behavior of genes (mRNA expression level, oligo-DNA microarray) in rat liver after 28-day oral administration
Format: in vivo
Description: A test solution was prepared by dissolving each of the carcinogens and the non-carcinogens shown in Tables 2 to 6 in the corresponding solvent shown in Tables 2 to 6. Each of the thus prepared test solutions and the solvents used for the preparation was administered by oral gavage to rats in each group. As the rats, male rats (F344 SPF rats) at 5 weeks of age obtained from Charles River Laboratories Japan, Inc. were used. The animals were divided into groups, each containing four individuals. The volume of the solvent administered to the vehicle control group was set to the same volume as that of the test solution administered to the carcinogen administration group or the non-carcinogen administration group. The administration of the test solution or the solvent was performed once daily for 28 days. Apiece was excised from the liver of each of the rats after a lapse of 28 days from the initiation of the administration, and the total RNA was extracted and purified.
The expression level of mRNA was compared between each of the chemical substance administration groups and the corresponding vehicle control group, and genes that satisfy the requirements described in (A) to (D) were selected, respectively.
The case where the expression level of mRNA in the carcinogen administration group or the non-carcinogen administration group is 1.5 times or more or 1/1.5 or less of the expression level of the corresponding mRNA expressed in the control group was determined to be significant. In this connection, the determination as to whether or not the change is significant was performed by taking into consideration the direction of increase or decrease in the expression level. In the case where the direction of increase or decrease is different as compared with the case where another carcinogen was administered, the change was determined to be not significant.

[1] = (C), Unigene Rn.120914, defined direction +, rat liver, oral once daily 28 days
[2] = gene group (A), Unigene No. Rn.167075
[3] = gene group (C), Unigene No. Rn.120914

COC(N)=O [TS029, Methyl carbamate]
Behavior of gene caused by administration of chemical substance, Gene No. 4846 ((A), Unigene Rn.144554, defined direction +, rat liver, oral once daily 28 days): + | Behavior of gene caused by administration of chemical substance, Gene No. 4218 ((A), Unigene Rn.167075, defined direction +, rat liver, oral once daily 28 days, significant = 1.5 times or more or 1/1.5 or less of control): + | Behavior of gene caused by administration of chemical substance, Gene No. 2026 ((A), Unigene Rn.167075, defined direction −, rat liver, oral once daily 28 days): + | Behavior of gene caused by administration of chemical substance, Gene No. 6182 ((A), Unigene Rn.5834, defined direction +, rat liver, oral once daily 28 days): + | Behavior of gene caused by administration of chemical substance, Gene No. 5600 ((A), Unigene Rn.9836, defined direction +, rat liver, oral once daily 28 days): + | Behavior of gene caused by administration of chemical substance, Gene No. 1494 ((B), Unigene Rn.1430, defined direction −, rat liver, oral once daily 28 days): + | Behavior of gene caused by administration of chemical substance, Gene No. 2045 ((B), Unigene Rn.19329, defined direction +, rat liver, oral once daily 28 days): − | Behavior of gene caused by administration of chemical substance, Gene No. 2203 ((B), Unigene Rn.21240, defined direction +, rat liver, oral once daily 28 days): − | Behavior of gene caused by administration of chemical substance, Gene No. 533 ((C), Unigene Rn.106184, defined direction +, rat liver, oral once daily 28 days): + | Behavior of gene caused by administration of chemical substance, Gene No. 725 ((C), Unigene Rn.108075, defined direction −, rat liver, oral once daily 28 days): − | Behavior of gene caused by administration of chemical substance, Gene No. 1163 ((C), Unigene Rn.11766, defined direction +, rat liver, oral once daily 28 days): − | Behavior of gene caused by administration of chemical substance, Gene No. 4973 ((C), Unigene Rn.118529, defined direction −, rat liver, oral once daily 28 days): − | Behavior of gene caused by administration of chemical substance, Gene No. 4095 ((C), Unigene Rn.119024, defined direction −, rat liver, oral once daily 28 days): − | Behavior of gene caused by administration of chemical substance, Gene No. 1334 [1]: − | Behavior of gene caused by administration of chemical substance, Gene No. 6620 [1]: − | Behavior of gene caused by administration of chemical substance, Gene No. 6303 ((C), Unigene Rn.123063, defined direction −, rat liver, oral once daily 28 days): + | Behavior of gene caused by administration of chemical substance, Gene No. 5878 ((C), Unigene Rn.143213, defined direction −, rat liver, oral once daily 28 days): − | Behavior of gene caused by administration of chemical substance, Gene No. 1131 ((C), Unigene Rn.144946, defined direction −, rat liver, oral once daily 28 days): − | Behavior of gene caused by administration of chemical substance, Gene No. 1562 ((C), Unigene Rn.14744, defined direction −, rat liver, oral once daily 28 days): + | Behavior of gene caused by administration of chemical substance, Gene No. 1741 ((C), Unigene Rn.1647, defined direction −, rat liver, oral once daily 28 days): + | Behavior of gene caused by administration of chemical substance, Gene No. 893 ((C), Unigene Rn.164817, defined direction +, rat liver, oral once daily 28 days): − | Behavior of gene caused by administration of chemical substance, Gene No. 6026 ((C), Unigene Rn.167685, defined direction −, rat liver, oral once daily 28 days): − | Behavior of gene caused by administration of chemical substance, Gene No. 154 ((C), Unigene Rn.185941, defined direction −, rat liver, oral once daily 28 days): + | Behavior of gene caused by administration of chemical substance, Gene No. 1993 ((C), Unigene Rn.18728, defined direction −, rat liver, oral once daily 28 days): + | Behavior of gene caused by administration of chemical substance, Gene No. 813 ((C), Unigene Rn.201760, defined direction +, rat liver, oral once daily 28 days): − | Behavior of gene caused by administration of chemical substance, Gene No. 2494 ((C), Unigene Rn.23969, defined direction +, rat liver, oral once daily 28 days): − | Behavior of gene caused by administration of chemical substance, Gene No. 2546 ((C), Unigene Rn.24561, defined direction −, rat liver, oral once daily 28 days): − | Behavior of gene caused by administration of chemical substance, Gene No. 3776 ((C), Unigene Rn.43232, defined direction −, rat liver, oral once daily 28 days): + | Behavior of gene caused by administration of chemical substance, Gene No. 3929 ((C), Unigene Rn.4620, defined direction +, rat liver, oral once daily 28 days): − | Behavior of gene caused by administration of chemical substance, Gene No. 1119 ((C), Unigene Rn.9757, defined direction +, rat liver, oral once daily 28 days): − | Behavior of gene caused by administration of chemical substance, Gene No. 6742 ((C), Unigene Rn.9779, defined direction +, rat liver, oral once daily 28 days): − | Behavior of gene caused by administration of chemical substance, Gene No. 5634 ((C), Unigene Rn.9862, defined direction −, rat liver, oral once daily 28 days): − | Behavior of gene caused by administration of chemical substance, Gene No. 5726 ((D), Unigene Rn.9939, defined direction −, rat liver, oral once daily 28 days): −

CC(=O)Nc1ccc(O)cc1 [TS031, Acetaminophen]
Behavior of gene caused by administration of chemical substance, Gene No. 4846 (gene group (A), Unigene No. Rn.144554): − | Behavior of gene caused by administration of chemical substance, Gene No. 2026 [2]: + | Behavior of gene caused by administration of chemical substance, Gene No. 4218 [2]: − | Behavior of gene caused by administration of chemical substance, Gene No. 6182 (gene group (A), Unigene No. Rn.5834): − | Behavior of gene caused by administration of chemical substance, Gene No. 5600 (gene group (A), Unigene No. Rn.9836): − | Behavior of gene caused by administration of chemical substance, Gene No. 1494 (gene group (B), Unigene No. Rn.1430): + | Behavior of gene caused by administration of chemical substance, Gene No. 2045 (gene group (B), Unigene No. Rn.19329): − | Behavior of gene caused by administration of chemical substance, Gene No. 2203 (gene group (B), Unigene No. Rn.21240): − | Behavior of gene caused by administration of chemical substance, Gene No. 533 (gene group (C), Unigene No. Rn.106184): + | Behavior of gene caused by administration of chemical substance, Gene No. 725 (gene group (C), Unigene No. Rn.108075): − | Behavior of gene caused by administration of chemical substance, Gene No. 1163 (gene group (C), Unigene No. Rn.11766): − | Behavior of gene caused by administration of chemical substance, Gene No. 4973 (gene group (C), Unigene No. Rn.118529): − | Behavior of gene caused by administration of chemical substance, Gene No. 4095 (gene group (C), Unigene No. Rn.119024): − | Behavior of gene caused by administration of chemical substance, Gene No. 1334 [3]: − | Behavior of gene caused by administration of chemical substance, Gene No. 6620 [3]: − | Behavior of gene caused by administration of chemical substance, Gene No. 6303 (gene group (C), Unigene No. Rn.123063): − | Behavior of gene caused by administration of chemical substance, Gene No. 5878 (gene group (C), Unigene No. Rn.143213): − | Behavior of gene caused by administration of chemical substance, Gene No. 1131 (gene group (C), Unigene No. Rn.144946): − | Behavior of gene caused by administration of chemical substance, Gene No. 1562 (gene group (C), Unigene No. Rn.14744): − | Behavior of gene caused by administration of chemical substance, Gene No. 1741 (gene group (C), Unigene No. Rn.1647): + | Behavior of gene caused by administration of chemical substance, Gene No. 893 (gene group (C), Unigene No. Rn.164817): − | Behavior of gene caused by administration of chemical substance, Gene No. 6026 (gene group (C), Unigene No. Rn.167685): − | Behavior of gene caused by administration of chemical substance, Gene No. 154 (gene group (C), Unigene No. Rn.185941): − | Behavior of gene caused by administration of chemical substance, Gene No. 1993 (gene group (C), Unigene No. Rn.18728): − | Behavior of gene caused by administration of chemical substance, Gene No. 813 (gene group (C), Unigene No. Rn.201760): − | Behavior of gene caused by administration of chemical substance, Gene No. 2494 (gene group (C), Unigene No. Rn.23969): − | Behavior of gene caused by administration of chemical substance, Gene No. 2546 (gene group (C), Unigene No. Rn.24561): + | Behavior of gene caused by administration of chemical substance, Gene No. 3776 (gene group (C), Unigene No. Rn.43232): − | Behavior of gene caused by administration of chemical substance, Gene No. 3929 (gene group (C), Unigene No. Rn.4620): − | Behavior of gene caused by administration of chemical substance, Gene No. 1119 (gene group (C), Unigene No. Rn.9757): − | Behavior of gene caused by administration of chemical substance, Gene No. 6742 (gene group (C), Unigene No. Rn.9779): + | Behavior of gene caused by administration of chemical substance, Gene No. 5634 (gene group (C), Unigene No. Rn.9862): − | Behavior of gene caused by administration of chemical substance, Gene No. 5726 (gene group (D), Unigene No. Rn.9939): −
